*1 amine or outer side, *2 acyl side, *3 side chain or, on linkers, in order; H or OH if unused. Where a SMILES comes first, the peptide text is derived from it. The star is where a group is joined. X7 = O=C(OC[C@@H](COS(=O)(=O)O)OS(=O)(=O)O)*; X6 = O=C(OC[C@H](COS(=O)(=O)O)OS(=O)(=O)O)*; X12 = O=S(=O)(O)OC[C@H](CN*)OS(=O)(=O)O; X2 = O=S(=O)(O)OC[C@@H](CN*)OS(=O)(=O)O; NH(3-hydroxypropyl) = OCCCN*; X3 = O=C(OCCCOS(=O)(=O)O)*; X10 = O=C(OC[C@@H](O)CO)*; X11 = O=C(OC[C@H](O)CO)*; X9 = O=S(=O)(O)OCCCCN*; X5 = O=S(=O)(O)OCCCN*; CO = O=C([*:1])[*:2]; NH(CH2)4OH = OCCCCN*; X14 = OC[C@H](O)CN*; X4 = OC[C@@H](O)CN*; X13 = O=C(OCCCO)*

A word on the inhibition: it is how much of the control response was suppressed.

In series [1] the target is Amyloid-beta precursor protein (Homo sapiens) (UniProt P05067). Nature of the series: Inhibition of amyloid beta (1 to 42) aggregation in HBP assessed as beta sheet formation at 1:20 protein to compound ratio after 48 hrs by Th-T fluorescence assay relative to control. Also noted: scale not given: the % may be the effect or the level left.
Chain of Amyloid-beta precursor protein (Homo sapiens) (P05067 whole entry): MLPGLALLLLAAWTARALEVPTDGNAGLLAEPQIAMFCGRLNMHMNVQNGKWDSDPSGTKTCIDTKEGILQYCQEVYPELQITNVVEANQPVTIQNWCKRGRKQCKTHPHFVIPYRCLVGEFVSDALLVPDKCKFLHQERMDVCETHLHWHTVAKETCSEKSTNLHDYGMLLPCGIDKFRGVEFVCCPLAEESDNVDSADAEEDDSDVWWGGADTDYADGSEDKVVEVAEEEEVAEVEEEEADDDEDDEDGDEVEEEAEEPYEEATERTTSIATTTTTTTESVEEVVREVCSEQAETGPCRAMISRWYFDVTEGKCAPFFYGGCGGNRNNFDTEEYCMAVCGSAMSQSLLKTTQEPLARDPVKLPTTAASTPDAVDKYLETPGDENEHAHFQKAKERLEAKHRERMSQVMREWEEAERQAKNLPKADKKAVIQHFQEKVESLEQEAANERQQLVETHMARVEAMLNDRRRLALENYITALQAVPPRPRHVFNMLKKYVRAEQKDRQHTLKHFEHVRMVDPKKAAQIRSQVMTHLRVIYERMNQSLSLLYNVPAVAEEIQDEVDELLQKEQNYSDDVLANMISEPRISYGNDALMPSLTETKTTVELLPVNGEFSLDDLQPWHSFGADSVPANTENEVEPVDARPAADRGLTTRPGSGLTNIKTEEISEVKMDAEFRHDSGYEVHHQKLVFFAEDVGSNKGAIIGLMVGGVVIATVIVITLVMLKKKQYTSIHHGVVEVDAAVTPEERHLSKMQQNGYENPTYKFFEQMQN
Series [2] can be described thus: Cytotoxicity against HBP assessed as cell death at 50 uM after 6 days by fluorescence assay. The settings on record: human, 144 h.
Series [3] deals with Amyloid-beta precursor protein (Homo sapiens) (UniProt P05067). Description: Inhibition of amyloid beta (1 to 42)-mediated cytotoxicity in HBP assessed as cell death at 1:5 protein to compound ratio after 6 days by fluorescence assay relative to control. More on the design: scale not given: the % may be the effect or the level left.
Series [4] shares this target. Description: Inhibition of monomeric amyloid beta (unknown origin)-mediated cytotoxicity at 1:5 protein to compound ratio by cell-based assay relative to control. The settings on record: concentration not given here.
The target is the same in series [5]. Description: Inhibition of monomeric amyloid beta (unknown origin) aggregation at 1:20 protein to compound ratio relative to control. The note with it: concentration not given here.

`CC(C)C[C@H](NC(=O)OCC(CO)CO)C(=O)N1CCC[C@H]1C(=O)N[C@@H](Cc1ccccc1)C(=O)N[C@@H](Cc1ccccc1)C(=O)N[C@@H](CC(=O)O)C(=O)O`: the Activity was 76.4% in series [1], “Non-toxic” in series [2] and 81.1% in series [3].
Consider `CC(C)C[C@H](NC(=O)OCC(CO)CO)C(=O)N1CCC[C@@H]1C(=O)N[C@@H](Cc1ccccc1)C(=O)N[C@@H](Cc1ccccc1)C(=O)N[C@@H](CC(=O)O)C(=O)O`, for which the Activity in series [1] amounted to 87.9%; in series [3] it was 94.8%.
In the case of `CC(C)C[C@H](NC(=O)OCC(COS(=O)(=O)O)CS(=O)(=O)O)C(=O)N1CCC[C@@H]1C(=O)N[C@@H](Cc1ccccc1)C(=O)N[C@@H](Cc1ccccc1)C(=O)N[C@@H](CC(=O)O)C(=O)O` (some centres undefined), the Activity amounted to 94.7% in series [1] and 93.8% in series [3].
For `CC(C)C[C@H](NC(=O)OCCCOS(=O)(=O)O)C(=O)N1CCC[C@H]1C(=O)N[C@@H](Cc1ccccc1)C(=O)N[C@@H](Cc1ccccc1)C(=O)N[C@@H](CC(=O)O)C(N)=O` (X3-LPFFD-NH2), in that order: 107% and 107%.
For `CC(C)C[C@H](NC(=O)OC[C@H](COS(=O)(=O)O)OS(=O)(=O)O)C(=O)N1CCC[C@H]1C(=O)N[C@@H](Cc1ccccc1)C(=O)N[C@@H](Cc1ccccc1)C(=O)N[C@@H](CC(=O)O)C(N)=O` (X6-LPFFD-NH2), in that order: 95.1% and 91.4%.
In the same order, the values of `CC(C)C[C@H](NC(=O)OC[C@@H](COS(=O)(=O)O)OS(=O)(=O)O)C(=O)N1CCC[C@H]1C(=O)N[C@@H](Cc1ccccc1)C(=O)N[C@@H](Cc1ccccc1)C(=O)N[C@@H](CC(=O)O)C(N)=O` (X7-LPFFD-NH2) are 96.3% and 95.9%.
In the case of `CC(C)C[C@H](NC(=O)OC[C@@H](O)CO)C(=O)N1CCC[C@H]1C(=O)N[C@@H](Cc1ccccc1)C(=O)N[C@@H](Cc1ccccc1)C(=O)N[C@@H](CC(=O)O)C(N)=O` (X10-LPFFD-NH2), the Activity in series [1] turned out to be 97%; in series [3] it was 89.7%.
As to `CC(C)C[C@H](NC(=O)OC[C@H](O)CO)C(=O)N1CCC[C@H]1C(=O)N[C@@H](Cc1ccccc1)C(=O)N[C@@H](Cc1ccccc1)C(=O)N[C@@H](CC(=O)O)C(N)=O` (X11-LPFFD-NH2), the Activity in series [1] worked out at 100%; in series [3], 91.6%.
Consider `CC(C)C[C@H](NC(=O)OCCCO)C(=O)N1CCC[C@H]1C(=O)N[C@@H](Cc1ccccc1)C(=O)N[C@@H](Cc1ccccc1)C(=O)N[C@@H](CC(=O)O)C(N)=O` (X13-LPFFD-NH2), for which the figures for the Activity in series [1] and in series [3] were 92.9% and 93%, respectively.
As for `CC(C)C[C@H](NC(=O)NCCCO)C(=O)N1CCC[C@H]1C(=O)N[C@@H](Cc1ccccc1)C(=O)N[C@@H](Cc1ccccc1)C(=O)N[C@@H](CC(=O)O)C(N)=O` ({NH(3-hydroxypropyl)-CO}-LPFFD-NH2), the Activity in series [1] turned out to be 82.7%; in series [3], 96.1%.
With `CC(C)C[C@H](NC(=O)NCCCCO)C(=O)N1CCC[C@H]1C(=O)N[C@@H](Cc1ccccc1)C(=O)N[C@@H](Cc1ccccc1)C(=O)N[C@@H](CC(=O)O)C(N)=O` ({NH(CH2)4OH-CO}-LPFFD-NH2), the Activity is 100% in series [1] and 99.6% in series [3].
As to `CC(C)C[C@H](NC(=O)NC[C@H](COS(=O)(=O)O)OS(=O)(=O)O)C(=O)N1CCC[C@H]1C(=O)N[C@@H](Cc1ccccc1)C(=O)N[C@@H](Cc1ccccc1)C(=O)N[C@@H](CC(=O)O)C(N)=O` ({X2-CO}-LPFFD-NH2), the results for the Activity in series [1] and in series [3] were 120% and 92%, respectively.
For `CC(C)C[C@H](NC(=O)NC[C@H](O)CO)C(=O)N1CCC[C@H]1C(=O)N[C@@H](Cc1ccccc1)C(=O)N[C@@H](Cc1ccccc1)C(=O)N[C@@H](CC(=O)O)C(N)=O` ({X4-CO}-LPFFD-NH2), in that order: 98.7% and 92.5%.
`CC(C)C[C@H](NC(=O)NCCCOS(=O)(=O)O)C(=O)N1CCC[C@H]1C(=O)N[C@@H](Cc1ccccc1)C(=O)N[C@@H](Cc1ccccc1)C(=O)N[C@@H](CC(=O)O)C(N)=O` ({X5-CO}-LPFFD-NH2): the figures for the Activity in series [1] and in series [3] were 83% and 95.9%, respectively.
In the same order, the values of `CC(C)C[C@H](NC(=O)NCCCCOS(=O)(=O)O)C(=O)N1CCC[C@H]1C(=O)N[C@@H](Cc1ccccc1)C(=O)N[C@@H](Cc1ccccc1)C(=O)N[C@@H](CC(=O)O)C(N)=O` ({X9-CO}-LPFFD-NH2) are 100% and 96.5%.
In the same order, the values of `CC(C)C[C@H](NC(=O)NC[C@@H](COS(=O)(=O)O)OS(=O)(=O)O)C(=O)N1CCC[C@H]1C(=O)N[C@@H](Cc1ccccc1)C(=O)N[C@@H](Cc1ccccc1)C(=O)N[C@@H](CC(=O)O)C(N)=O` ({X12-CO}-LPFFD-NH2) are 127% and 92%.
In the case of `CC(C)C[C@H](NC(=O)NC[C@@H](O)CO)C(=O)N1CCC[C@H]1C(=O)N[C@@H](Cc1ccccc1)C(=O)N[C@@H](Cc1ccccc1)C(=O)N[C@@H](CC(=O)O)C(N)=O` ({X14-CO}-LPFFD-NH2), the Activity in series [1] was 98.7%; in series [3] it was 96.6%.
Regarding Ac-LPFFD-NH2, the inhibition in series [4] and in series [5] was 50% in each case. The Activity was found to be 51.9% in series [1] and 51.8% in series [3].

The record behind these values is ChEMBL document CHEMBL3217585, “A rational design to create hybrid -sheet breaker peptides to inhibit aggregation and toxicity of amyloid-” (Medchemcomm, 2011).
